From article PMC6271239, “Synthesis and in Vitro Evaluation of New Nitro-Substituted Thiazolyl Hydrazone Derivatives as Anticandidal and Anticancer Agents” (Molecules, 2014)
Converted amounts (≈) assume the structure as drawn.

Experiments:
[1] = test system: MCF-7 human breast adenocarcinoma cell line; test: MTT cytotoxicity assay; assay type: cell-based; details: 3.9–500 µg/mL; for IC50: Homo sapiens, MCF7, 24 h incubation
Procedure: (§1) The tetrazolium salt, MTT (3-(4,5-dimethylthiazol-2-yl)-2,5-diphenyltetrazolium bromide), is used to measure the metabolic activity of viable cells. Tetrazolium salts are reduced to formazan by mitochondrial succinate dehydrogenase, an enzyme which is only active in cells with an intact metabolism. The formazan can be quantified photometrically and it is in correlation with the number of viable cells. Cytotoxicity was tested using the MCF-7 human breast adenocarcinoma cell line and NIH/3T3 mouse embryonic fibroblast cell line. NIH/3T3 and MCF-7 cells were incubated in RPMI medium (Hyclone, Thermo Scientific, Logan, UT, USA) supplemented with fetal calf serum (Hyclone), 100 IU/mL penicillin and […] (Hyclone) at 37 °C in a humidified atmosphere of 95% air and 5% CO2. MCF-7 and NIH/3T3 cells were seeded at 10,000 cells into each well of 96-well plates. After 24 h of incubating period, the culture mediums were removed and compounds were added to culture medium at 3.9–500 µg/mL concentrations. After 24 h of incubation, cytotoxicity tests were performed using the MTT assay, which measures mitochondrial activity, in MCF-7 and NIH/3T3 cells. Firstly, 20 µL MTT solution (5 mg/mL MTT powder in PBS) was added to each well. After 3 h incubation period at 37 °C, 5% CO2, the contents of the wells were removed and 100 µL DMSO was added to each well. Then, OD of the plate was read at 570 nm. Inhibition% was calculated for each concentration of the compounds. IC50 values were estimated by non-linear regression analysis. Cisplatin was used as a positive control. Stock solutions of compounds were prepared in DMSO and further dilutions were made with fresh culture medium. All experiments were performed in duplicate.

[2] = test system: NIH/3T3 mouse embryonic fibroblast cell line; test: MTT cytotoxicity assay; assay type: cell-based; details: 3.9–500 µg/mL; for IC50: Mus musculus, NIH3T3, 24 h incubation
Procedure: as §1

[3] = test system: Candida albicans (ATCC 10231); test: Anticandidal broth microdilution assay; assay type: cell-based; details: ATCC10231, RPMI, 37 °C, 24 h
Procedure: (§2) Anticandidal activity assay was performed against Candida albicans (ATCC 10231), Candida utilis (NRRLY 900), Candida tropicalis (NRRLY 12968), Candida krusei (NRRLY 7179), Candida parapsilosis (NRRLY 12696) and Candida glabrata (ATCC 2001) standard strains according to the CSLI method.
(§3) The minimum inhibitory concentration (MIC, µg/mL) values against pathogenic Candida strains were determined by a broth microdilution method using a 96-well plate format. Compounds 1–14 and fluconazole as a standard control were first dissolved in dimethyl sulfoxide (DMSO) (25%) at an initial concentration of 2000 µg/mL.
(§4) All Candida strains were inoculated on Potato Dextrose Agar (PDA) prior the experiments at 37 °C. After the incubation, sufficiently grown microorganisms were inoculated in sterile saline (0.85%), and then standardized according to the turbidity to 5 × 10^3 CFU (McFarland No: 0.5) per well in RPMI medium under sterile conditions. Serial dilutions were prepared in 100 µL RPMI medium with an equal amount of the test samples, and 100 µL each microorganism suspension was pipetted into each well and incubated at 37 °C for 24 h. Positive growth controls (to assess the presence of turbidity) were performed in wells without the test samples, whereas the negative growth control (medium) was also evaluated. MIC was deﬁned as the lowest concentration without any visible growth of the yeast when compared with the growth in the control plate. All experiments were performed in duplicate.

[4] = test system: Candida glabrata (ATCC 2001); test: Anticandidal broth microdilution assay; assay type: cell-based; details: Nakaseomyces glabratus, ATCC2001, RPMI, 37 °C, 24 h
Procedure: as §2, §3, §4

[5] = test system: Candida krusei (NRRLY 7179); test: Anticandidal broth microdilution assay; assay type: cell-based; details: Pichia kudriavzevii, RPMI, 37 °C, 24 h
Procedure: as §2, §3, §4

[6] = test system: Candida parapsilosis (NRRLY 12696); test: Anticandidal broth microdilution assay; assay type: cell-based; details: Lodderomyces parapsilosis, RPMI, 37 °C, 24 h
Procedure: as §2, §3, §4

[7] = test system: Candida tropicalis (NRRLY 12968); test: Anticandidal broth microdilution assay; assay type: cell-based; details: RPMI, 37 °C, 24 h
Procedure: as §2, §3, §4

[8] = test system: Candida utilis (NRRLY 900); test: Anticandidal broth microdilution assay; assay type: cell-based; details: Williopsis jadinii, RPMI, 37 °C, 24 h
Procedure: as §2, §3, §4

| SMILES | IC50 MCF-7 Cell Line ([1]; 24 h incubation) [µg/mL] | IC50 NIH/3T3 Cell Line ([2]; 24 h incubation) [µg/mL] | MIC [3] [µg/mL] | MIC [4] [µg/mL] | MIC [5] [µg/mL] | MIC [6] [µg/mL] | MIC [7] [µg/mL] | MIC [8] [µg/mL] | IC50 [1] [µg/mL] | IC50 [2] [µg/mL] | melting point [°C] |
| --- | --- | --- | --- | --- | --- | --- | --- | --- | --- | --- | --- |
| N.N.[Cl][Pt][Cl] [Cisplatin, reference compound] | 31.2 | 330.58 |  |  |  |  |  |  |  |  |  |
| O=[N+]([O-])c1ccc(-c2ccc(C=NNc3nc(-c4ccccc4)cs3)o2)cc1 [Compound 1, 2-[2-((5-(4-Nitrophenyl)furan-2-yl)methylene)hydrazinyl]-4-phenylthiazole] |  |  | 500 (≈ 1280 µM) | 1000 (≈ 2560 µM) | 500 (≈ 1280 µM) | 500 (≈ 1280 µM) | 1000 (≈ 2560 µM) | 500 (≈ 1280 µM) | > 500 | > 500 | 213 to 214 |
| O=[N+]([O-])c1ccc(-c2csc(NN=Cc3ccc(-c4ccc([N+](=O)[O-])cc4)o3)n2)cc1 [Compound 2, 4-(4-Nitrophenyl)-2-[2-((5-(4-nitrophenyl)furan-2-yl)methylene)hydrazinyl]thiazole] |  |  | 500 (≈ 1150 µM) | 1000 (≈ 2300 µM) | 500 (≈ 1150 µM) | 500 (≈ 1150 µM) | 500 (≈ 1150 µM) | 500 (≈ 1150 µM) | > 500 | > 500 | 252 to 254 |
| O=[N+]([O-])c1ccc(-c2ccc(C=NNc3nc(-c4ccc(F)cc4)cs3)o2)cc1 [Compound 3, 4-(4-Fluorophenyl)-2-[2-((5-(4-nitrophenyl)furan-2-yl)methylene)hydrazinyl]thiazole] |  |  | 500 (≈ 1220 µM) | 1000 (≈ 2450 µM) | 500 (≈ 1220 µM) | 500 (≈ 1220 µM) | 500 (≈ 1220 µM) | 500 (≈ 1220 µM) | 500 (≈ 1220 µM) | 250 (≈ 612 µM) | 241 to 242 |
| O=[N+]([O-])c1ccc(-c2ccc(C=NNc3nc(-c4ccc(Cl)cc4)cs3)o2)cc1 [Compound 4, 4-(4-Chlorophenyl)-2-[2-((5-(4-nitrophenyl)furan-2-yl)methylene)hydrazinyl]thiazole] |  |  | 500 (≈ 1180 µM) | 500 (≈ 1180 µM) | 500 (≈ 1180 µM) | 1000 (≈ 2350 µM) | 500 (≈ 1180 µM) | 500 (≈ 1180 µM) | > 500 | > 500 | 229 to 231 |
| O=[N+]([O-])c1ccc(-c2ccc(C=NNc3nc(-c4ccc(Br)cc4)cs3)o2)cc1 [Compound 5, 4-(4-Bromophenyl)-2-[2-((5-(4-nitrophenyl)furan-2-yl)methylene)hydrazinyl]thiazole] |  |  | 500 (≈ 1070 µM) | 1000 (≈ 2130 µM) | 1000 (≈ 2130 µM) | 500 (≈ 1070 µM) | 500 (≈ 1070 µM) | 500 (≈ 1070 µM) | > 500 | > 500 | 243 to 244 |
| Cc1ccc(-c2csc(NN=Cc3ccc(-c4ccc([N+](=O)[O-])cc4)o3)n2)cc1 [Compound 6, 2-[2-((5-(4-Nitrophenyl)furan-2-yl)methylene)hydrazinyl]-4-(p-tolyl)thiazole] |  |  | 500 (≈ 1240 µM) | 500 (≈ 1240 µM) | 1000 (≈ 2470 µM) | 500 (≈ 1240 µM) | 1000 (≈ 2470 µM) | 500 (≈ 1240 µM) | > 500 | > 500 | 236 to 237 |
| COc1ccc(-c2csc(NN=Cc3ccc(-c4ccc([N+](=O)[O-])cc4)o3)n2)cc1 [Compound 7, 4-(4-Methoxyphenyl)-2-[2-((5-(4-nitrophenyl)furan-2-yl)methylene)hydrazinyl]thiazole] |  |  | 500 (≈ 1190 µM) | 1000 (≈ 2380 µM) | 500 (≈ 1190 µM) | 500 (≈ 1190 µM) | 500 (≈ 1190 µM) | 500 (≈ 1190 µM) | > 500 | > 500 | 232 to 233 |
| O=[N+]([O-])c1cc(Cl)ccc1-c1ccc(C=NNc2nc(-c3ccccc3)cs2)o1 [Compound 8, 2-[2-((5-(4-Chloro-2-nitrophenyl)furan-2-yl)methylene)hydrazinyl]-4-phenylthiazole] |  |  | 500 (≈ 1180 µM) | 1000 (≈ 2350 µM) | 500 (≈ 1180 µM) | 1000 (≈ 2350 µM) | 500 (≈ 1180 µM) | 500 (≈ 1180 µM) | > 500 | > 500 | 194 to 195 |
| O=[N+]([O-])c1ccc(-c2csc(NN=Cc3ccc(-c4ccc(Cl)cc4[N+](=O)[O-])o3)n2)cc1 [Compound 9, 2-[2-((5-(4-Chloro-2-nitrophenyl)furan-2-yl)methylene)hydrazinyl]-4-(4-nitrophenyl)thiazole] |  |  | 500 (≈ 1060 µM) | 1000 (≈ 2130 µM) | 500 (≈ 1060 µM) | 500 (≈ 1060 µM) | 500 (≈ 1060 µM) | 500 (≈ 1060 µM) | 103 (≈ 218 µM) | 86.3 (≈ 184 µM) | 216 to 220 |
| O=[N+]([O-])c1cc(Cl)ccc1-c1ccc(C=NNc2nc(-c3ccc(F)cc3)cs2)o1 [Compound 10, 2-[2-((5-(4-Chloro-2-nitrophenyl)furan-2-yl)methylene)hydrazinyl]-4-(4-fluorophenyl)thiazole] |  |  | 500 (≈ 1130 µM) | 1000 (≈ 2260 µM) | 1000 (≈ 2260 µM) | 500 (≈ 1130 µM) | 500 (≈ 1130 µM) | 250 (≈ 565 µM) | 122 (≈ 275 µM) | 250 (≈ 565 µM) | 208 to 209 |
| O=[N+]([O-])c1cc(Cl)ccc1-c1ccc(C=NNc2nc(-c3ccc(Cl)cc3)cs2)o1 [Compound 11, 2-[2-((5-(4-Chloro-2-nitrophenyl)furan-2-yl)methylene)hydrazinyl]-4-(4-chlorophenyl)thiazole] |  |  | 500 (≈ 1090 µM) | 1000 (≈ 2180 µM) | 1000 (≈ 2180 µM) | 500 (≈ 1090 µM) | 500 (≈ 1090 µM) | 500 (≈ 1090 µM) | 125 (≈ 272 µM) | > 500 | 186 to 187 |
| OC(Cn1cncn1)(Cn1cncn1)c1ccc(F)cc1F [Fluconazole, reference compound] |  |  | 1 (≈ 3.27 µM) | 2 (≈ 6.53 µM) | 2 (≈ 6.53 µM) | 2 (≈ 6.53 µM) | 1 (≈ 3.27 µM) | 2 (≈ 6.53 µM) |  |  |  |
